Columns and labels:
[1] = tested on: J774.A1 murine macrophage cells; test: MTT cell viability assay on macrophages; format: cell-based
Experimental: (§1) The J774.A1 murine macrophage cells were grown in Roswell Park Memorial Institute (RPMI) 1640 medium in the presence of 10% (v/v) FBS and 100 U/ml penicillin−100 µg/ml streptomycin (Gibco, Invitrogen, Thermo Fisher Scientific, NY, USA) at 37°C (humidified) and 5% CO2. […] Madin–Darby canine kidney (MDCK) cells were obtained from the National Centre for Cell Science, Pune, India. MDCK cells were derived from the kidney tissue of an adult female Cocker Spaniel. These were grown in Dulbecco’s modified Eagle’s minimal essential medium (DMEM) in the presence of 10% (v/v) FBS and 100 U/ml penicillin−100 µg/ml streptomycin (Gibco, Invitrogen, Thermo Fisher Scientific, NY, USA) at 37°C (humidified) and 5% CO2 ([Ayana et al., 2018]; [Shivappagowdar et al., 2021]).
(§2) All the compounds were dissolved in dimethyl sulfoxide (DMSO) (Sigma-Aldrich) for 1 mM stock solution and were screened against promastigotes at a concentration of 5 µM. For Glycosides (Gly) 2, 6, and 8, a range of concentrations starting from 100 nM to 100 µM were screened against promastigote forms of parasite and mammalian cells. Parasites (AG83 and PKDL strain) treated with amphotericin B (3 µg/ml) (Sigma-Aldrich) were maintained as the positive control.
(§3) To evaluate the cytotoxic effects of 12 compounds on L. donovani promastigotes, LDH assay was performed. This assay involves the reduction of tetrazolium salts to formazan during LDH-mediated catalysis of lactate to pyruvate, which can be detected at […]. Rate of formazan formation is proportional to the release of LDH through damaged cell membranes. For the preliminary screening, the promastigotes were incubated with 12 compounds at a single concentration of 5 µM for a period of 72 h, and the released LDH was estimated ( Supplementary Figure S1A ). Amphotericin B-treated promastigotes were taken as the positive control. […] Having observed the antileishmanial effect of Gly2 on growth and proliferation of promastigotes, we next investigated the cytotoxicity of Gly2 on mammalian cells (MDCK, J774.1A) through MTT (3-(4, 5-dimethylthiazolyl-2)-2, 5-diphenyltetrazolium bromide) cell viability assay ( Supplementary Figures S1B, C ). […] The CC50 values of Gly2 analog was in the micromolar range. The selectivity index (SI) for the compound was calculated as the ratio between cytotoxicity (CC50) and activity (IC50) against promastigotes ( Table 1 ).

[2] = tested on: L. donovani promastigotes (AG83 strain); test: LDH cytotoxicity assay on promastigotes, AG83 strain; format: cell-based, Leishmania donovani
Experimental: Promastigote forms of L. donovani (MHOM/IN/1983/AG83) were cultured at 26°C in M199 (GIBCO, India), pH 7.4, supplemented with 10% (v/v) inactivated fetal bovine serum (FBS, GIBCO, India) and 0.02 mg/ml gentamycin (Life Technologies, USA). The clinical isolate of PKDL, BS12, was obtained as a gift from Prof. Mitali Chatterjee [Department of Pharmacology, Institute of Postgraduate Medical Education and Research (IPGMER), Kolkata, India]. BS12 was routinely cultured at 22°C in M199 (GIBCO, India) with 100 U/ml penicillin-streptomycin (Gibco, Invitrogen, Thermo Fisher Scientific, NY, USA), 8 μM hemin (4 mM stock made in 50% triethanolamine) (Sigma, USA), 25 mM 4-(2-hydroxyethyl)-1-piperazineethanesulfonic acid (HEPES), supplemented with 10% heat-inactivated FBS (GIBCO, India). Cultures were maintained between 10^6 and 10^7 cells/ml for continuous exponential growth. In addition, 1 × 10^6 cells/ml parasite count was constantly maintained for all the experiments ([Ramu et al., 2017]).
as §2
AG83 strain of L. donovani were exposed to various Gly compound concentrations (100 nM–100 µM) in a 96-well microtiter plate (100 µl/well volume) and were incubated for 72 h at 26°C. Finally, lactate dehydrogenase (LDH) cytotoxic assay was performed as per standard protocol (CytoTox 96 Non-Radioactive Cytotoxicity Assay-Promega, USA). The percent cytotoxicity of test compounds was calculated by normalizing with amphotericin B as 100%. Further percentage growth inhibition was calculated using the formula:
% Growth Inhibition = Gly treated LDH activity- Spontaneous LDH activity
/Maximum LDH activity- Spontaneous LDH activity * 100
As per the formula, the spontaneous LDH Activity = activity of the untreated cells and the maximum LDH activity = activity of the amphotericin B-treated cells. IC50 value for Gly2, 6, and 8 treated was generated for AG83 and PKDL strain of L. donovani using sigmoidal dose–response model with nonlinear regression tool ([Ramu et al., 2017]).

[3] = tested on: L. donovani promastigotes; test: Hoechst/PI live/dead dual staining of promastigotes; format: cell-based, Leishmania donovani; details: 5 µM, 72 h
Experimental: The toxic effect of the three compounds, Gly2, 6, and 8 on promastigotes at 5 µM >IC50 concentration was measured by Hoechst and propidium iodide (PI) double staining. […], parasites were harvested, washed in 0.01 M PBS (pH = 7.4), and stained with Hoechst 33258 (1 µg/ml) (Life Technologies, USA) and PI (5 µg/ml) (Life Technologies, USA) followed by incubation for a period of 20 min at 37°C. Subsequently, cells were washed for excessive stain removal and visualized using fluorescence microscope with 510–560-nm filter block for PI red fluorescence and excitation/emission spectra at 361/497 for Hoechst ([López-Arencibia et al., 2015]).

[4] = MTT cell viability assay on macrophages; format: cell-based, murine; details: mouse, J774.A1 macrophage cells; Table 1; macrophages
Experimental: as §1, §2, §3

[5] = tested on: L. donovani intracellular amastigotes in J774.A1 macrophages; test: Intramacrophage amastigote assay (Giemsa staining, J774.A1); format: cell-based, Leishmania donovani; details: treated at IC50 concentration, 24 h; untreated control ~5
Experimental: For evaluating the efficacy of compounds against intramacrophage amastigotes, Giemsa staining (Sigma-Aldrich) was performed. J774.A1 murine macrophage cells were plated at a cell density of 5 × 10^5 cell/well in a 6-well flat bottom plate. The cells were infected with late-stage L. donovani, rich in promastigotes at a ratio of 10:1. After 6 h, uninfected promastigotes were washed off with PBS.

[6] = Table 1, activity against promastigotes
[7] = Leishmania donovani, AG83 promastigotes, LDH assay 72 h, sigmoidal curve, normalised to amphotericin B 3 µg/ml as 100%
[8] = Leishmania donovani, Table 1, activity against promastigotes

CCOC1O[C@H](CO)[C@@H](O)[C@H](O)[C@H]1NC(C)=O (stereo partly drawn) [Gly1, ethyl glycoside N-Acetyl-D-glucosamine]
CC50 [1]: 248 µM
IC50 [2, 6]: 65 µM

CCCCCCOC1O[C@H](CO)[C@@H](O)[C@H](O)[C@H]1O (stereo partly shown) [Gly3]
CC50 [1]: 1680 µM
IC50 [2, 6]: 12.7 µM

CCCCOC1O[C@H](COC(C)=O)[C@@H](OC(C)=O)[C@H](OC(C)=O)[C@H]1OC(C)=O (stereo partly shown) [Gly4]
CC50 [1]: 167 µM
IC50 [2, 6]: 4.6 µM

CCCCCCOC1O[C@H](COC(C)=O)[C@@H](OC(C)=O)[C@H](OC(C)=O)[C@H]1OC(C)=O (stereo partly shown) [Gly5]
CC50 [1]: 159 µM
IC50 [2, 6]: 5.97 µM

CC(=O)OC[C@H]1OC(OCCC(C)C)[C@H](OC(C)=O)[C@@H](OC(C)=O)[C@@H]1OC(C)=O (stereo partly shown) [Gly6]
dead parasites (PI positive) [3]: ~ 33.72%
CC50 [4]: 1030 µM
IC50 [2, 7]: 2.94 µM
IC50 [2, 8]: 3.4 µM
number of amastigotes per infected macrophage [5]: ~ 3 amastigotes/macrophages

CCOC1O[C@H](COC(C)=O)[C@@H](OC(C)=O)[C@H](OC(C)=O)[C@H]1OC(C)=O (stereo partly shown) [Gly7]
CC50 [1]: 299 µM
IC50 [2, 6]: 77 µM

CCCOC1O[C@H](COC(C)=O)[C@@H](OC(C)=O)[C@H](OC(C)=O)[C@H]1OC(C)=O (stereo partly drawn) [Gly8, (2R,3R,4S,5R)-2-(acetoxymethyl)-6-propoxytetrahydro-2H-pyran-3,4,5-triyl triacetate]
dead parasites (PI positive) [3]: 75.47%
CC50 [4]: 959 µM
IC50 [2, 7]: 1.61 µM
IC50 [2, 8]: 1.6 µM
number of amastigotes per infected macrophage [5]: ~2 amastigotes/macrophages

CC(=O)OC[C@H]1OC(OC(C)C)[C@H](OC(C)=O)[C@@H](OC(C)=O)[C@@H]1OC(C)=O (stereo partly shown) [Gly9]
CC50 [1]: 256 µM
IC50 [2, 6]: 36 µM

CCCOC1O[C@H](COC(C)=O)[C@@H](OC(C)=O)[C@H](OC(C)=O)[C@H]1NC(C)=O (stereo partly shown) [Gly10]
CC50 [1]: 239 µM
IC50 [2, 6]: 25.2 µM

CC(=O)N[C@H]1[C@@H](OCCC(C)C)O[C@H](COC(C)=O)[C@@H](OC(C)=O)[C@@H]1OC(C)=O [Gly11]
CC50 [1]: 179 µM
IC50 [2, 6]: 43 µM

CCCCO[C@H]1O[C@H](COC(C)=O)[C@@H](OC(C)=O)[C@H](OC(C)=O)[C@H]1NC(C)=O [Gly12]
CC50 [1]: 279 µM
IC50 [2, 6]: 95 µM
